Experimental data published in patent publication US11976083B2, “Inhibitors of peptidylarginine deiminases” (Gilead Sciences, Inc., priority 2020, dated 2024).

Molecular target: T1, human PAD4 (Homo sapiens, UniProt Q9UM07)
T1 construct: human PAD4 (NM_012387), A2-P663, was PCR amplified; His-SUMO (N, cleaved yes); made in house; host or cells: E. coli BL21(DE3)
Test: In vitro PAD4 BAEE biochemical assay
Conditions: BAEE substrate 3 mM, 5 nM PAD4, 2 mM calcium chloride; geometric mean of multiple experiments
Procedure, shortened: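 PAD4 5 nM, CaCl2 2 mM, BAEE 3 mM final; 50 mM MOPS pH 7.6, 50 mM NaCl, 0.05% Tween-20, 2 mM DTT. Cpd + enzyme 30 min 25 °C; substrate 2 h 25 °C; EDTA stop; OPA detection 1 h. IC50 4-parameter fit.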

T1 sequence (Q9UM07 2-663): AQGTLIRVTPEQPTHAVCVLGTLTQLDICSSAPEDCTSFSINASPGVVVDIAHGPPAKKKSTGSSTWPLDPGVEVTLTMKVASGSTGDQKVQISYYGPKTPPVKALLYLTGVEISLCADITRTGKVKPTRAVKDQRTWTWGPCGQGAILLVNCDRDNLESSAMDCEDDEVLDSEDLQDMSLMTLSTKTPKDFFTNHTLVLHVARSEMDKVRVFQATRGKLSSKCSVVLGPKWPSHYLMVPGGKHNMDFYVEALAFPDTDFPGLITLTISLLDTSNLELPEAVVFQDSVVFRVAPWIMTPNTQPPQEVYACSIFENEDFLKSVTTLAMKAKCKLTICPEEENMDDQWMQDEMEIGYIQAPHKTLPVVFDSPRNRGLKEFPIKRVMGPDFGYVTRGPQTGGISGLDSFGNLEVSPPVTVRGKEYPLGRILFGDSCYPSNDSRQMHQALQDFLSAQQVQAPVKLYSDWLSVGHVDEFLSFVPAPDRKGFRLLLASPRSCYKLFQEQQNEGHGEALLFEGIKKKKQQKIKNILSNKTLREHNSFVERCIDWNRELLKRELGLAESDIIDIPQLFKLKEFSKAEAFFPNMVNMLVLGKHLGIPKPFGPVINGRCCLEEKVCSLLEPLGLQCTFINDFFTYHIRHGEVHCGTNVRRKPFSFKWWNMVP

IC50 | Compound
371 nM | COc1cc(C(=O)N2CC[C@H]3OCCN[C@H]3C2)cc2nc(-c3cc4ccc5nc4n3CCCCCCC3(CC3)C(=O)N[C@@H]5C)n(C)c12 [Example 343, (11~{R})-17-[5-[(4~{a}~{S),8~{a}~{R})-2,3,4,4~{a},5,7,8,8~{a}-octahydropyrido[4,3-b][1,4]oxazine-6-carbonyl]-7-methoxy-1-methyl-benzimidazol-2-yl]-11-methyl-spiro[1,10,19-triazatricyclo[10.5.2.0^{15,18}]nonadeca-12(19),13,15(18),16-tetraene-8,1′-cyclopropane]-9-one]
277 nM | COCCn1c(-c2cc3ccc4nc3n2CCCCCc2nccnc2C(=O)N[C@@H]4C)nc2cc(C(=O)N3CC[C@@H](OC)[C@@H](N)C3)cc(OC)c21 [Example 510, (2~{R})-17-[5-[(3~ {S),4~{R})-3-amino-4-methoxy-piperidine-1-carbonyl]-7-methoxy-1-(2-methoxyethyl)benzimidazol-2-yl]-2-methyl-3,6,9,16,22-pentazatetracyclo[14.5.2.0^ {5,10}.0^{19,23}] tricosa-1(22),5(10),6,8,17,19 (23),20-heptaen-4-one]
20 nM | C[C@H]1NC(=O)C(C)(C)CCCCCn2c(-c3nc4cc(C(=O)N5C[C@H](N)[C@@H]6CC[C@H]5C6)cc(F)c4n3C3CC3)cc3ccc1nc32 [Example 684, (10~{R})-16-[5-[(1~{S}, 4~{R},5~{R})-4-amino-2-azabicyclo [3.2.1]octane-2-carbonyl]-1-cyclopropyl-7-fluoro-benzimidazol-2-yl]-7,7,10-trimethyl-1,9,18-triazatricyclo[9.5.2.0^ {14,17}]octadeca-11(18), 12,14(17),15-tetraen-8-one]
33 nM | CO[C@@H]1CCN(C(=O)c2ccc3c(c2)nc(-c2cc4ccc5nc4n2CCCCC[C@@H]2C[C@H]2C(=O)N[C@@H]5C)n3C2CC2)C[C@@H]1N [Example 691, (2~{R},5~{R},7~{R})-14-[5-[(3~{S},4~{R})-3-amino-4-methoxy-piperidine-1-carbonyl]-1-cyclopropyl-benzimidazol-2-yl]-2-methyl-3,13,19-triazatetracyclo[11.5.2.0^ {5,7}.0^{16,20}]icosa-1(19),14,16(20),17-tetraen-4-one]
7450 nM | COc1cc(C(=O)N2[C@H]3CC[C@@H]2[C@H](N)C3)cc2nc(-c3cc4ccc5cc4n3CCCC3CCN(CC3)C(=O)c3ccccc3-5)n(C)c12 [Example 101, 17-[5-[(1~{R},2~{R},4~{S})-2-amino-7-azabicyclo[2.2.1]heptane-7-carbonyl]-7-methoxy-1-methyl-benzimidazol-2-yl]-9,16-diazapentacyclo[14.5.2.2^{9,12}.0^{2,7}.0^ {19,23}]pentacosa-1(22),2,4,6,17,19(23),20-heptaen-8-one]
74 nM | COc1cc(C(=O)N2CCC[C@@H](N)C2)cc2nc(-c3cc4ccc5nc4n3CCCCCOCC(C)(C)C(=O)N[C@@H]5C)n(C)c12 [Example 17, (12~{R})-18-[5-[(3~{R})-3-aminopiperidine-1-carbonyl]-7-methoxy-1-methyl-benzimidazol-2-yl]-9,9,12-trimethyl-7-oxa-1,11,20-triazatricyclo[11.5.2.0^{16,19}]icosa-13(20),14,16(19),17-tetraen-10-one]
68 nM | C[C@H]1NC(=O)c2nccnc2CCCCCn2c(-c3nc4cc(C(=O)N[C@H]5CNCC[C@@H]5F)c(F)cc4n3C3CC3)cc3ccc1nc32 [Example 243, 1-cyclopropyl-6-fluoro-~{N}-[(3~{S},4~{S})-4-fluoro-3-piperidyl]-2-[(2~{R})-2-methyl-4-oxo-3,6,9,16,22-pentazatetracyclo[14.5.2.0^{5,10}.0^{19, 23}]tricosa-1(21),5(10),6,8,17,19,22-heptaen-17-yl]benzimidazole-5-carboxamide]
13 nM | COc1cc(C(=O)N2[C@H]3CC[C@@H]2[C@H](N)C3)cc2nc(-c3cc4ccc5cc4n3CCCCCCCC(=O)N3CCC[C@H]53)n(C)c12 [Example 129, (2~{R})-16-[5-[(1~{R},2~{R},4~{S})-2-amino-7-azabicyclo[2.2.1]heptane-7-carbonyl]-7-methoxy-1-methyl-benzimidazol-2-yl]-6,15-diazatetracyclo[13.5.2.0^{2,6}.0^{18,22}] docosa-1(21),16,18(22),19-tetraen-7-one]
92 nM | C[C@H]1NC(=O)c2ccc(Cl)nc2CCCCCn2c(-c3nc4cc(C(=O)N5C[C@H](N)[C@@H]6CC[C@H]5C6)cc(F)c4n3CC(C)(C)C)cc3ccc1nc32 [Example 947, (2~{R})-17-[5-[(1~{S},4~ {R},5~{R})-4-amino-2-azabicyclo[3.2.1]octane-2-carbonyl]-1-(2,2-dimethylpropyl)-7-fluoro-benzimidazol-2-yl]-8-chloro-2-methyl-3,9,16,22-tetrazatetracyclo [14.5.2.0^{5,10}.0^{19,23}] tricosa-1(22),5(10),6,8,17, 19(23),20-heptaen-4-one]
120 nM | COc1cc(C(=O)N2[C@H]3CC[C@@H]2[C@H](N)C3)cc2nc(-c3cc4ccc5nc4n3CCCCCC[C@@](C)(C(F)(F)F)C(=O)N[C@@H]5C)n(C)c12 [Example 12, (8~{R},11~{R})-17-[5-[(1~{R},2~{R},4~{S})-2-amino-7-azabicyclo[2.2.1]heptane-7-carbonyl]-7-methoxy-1-methyl-benzimidazol-2-yl]-8,11-dimethyl-8-(trifluoromethyl)-1,10,19-triazatricyclo[10.5.2.0^{15,18}]nonadeca-12(19),13,15(18),16-tetraen-9-one]
41 nM | COCCn1c(-c2cc3ccc4nc3n2CCCCC[C@@H]2C[C@H]2C(=O)N[C@@H]4C)nc2cc(C(=O)N[C@H]3CNCC[C@@H]3F)cc(OC)c21 [Example 431, ~{N}-[(3~{S},4~{S})-4-fluoro-3-piperidyl]-7-methoxy-1-(2-methoxyethyl)-2-[(2~{R},5~{R},7~{R})-2-methyl-4-oxo-3,13,19-triazatetracyclo[11.5.2.0^{5,7}.0^{16,20}]icosa-1(19),14,16(20),17-tetraen-14-yl]benzimidazole-5-carboxamide]
45 nM | COc1cc(C(=O)N[C@H]2CNCC[C@@H]2F)cc2nc(-c3cc4ccc5nc4n3C[C@H]3C[C@H]3COCCC(=O)N[C@@H]5C)n(C)c12 [Example 315, ~{N}-[(3~{S},4~{S})-4-fluoro-3-piperidyl]-7-methoxy-1-methyl-2-[(3~{S},5~{R},12~{R})-12-methyl-10-oxo-7-oxa-1,11,20-triazatetracyclo[11.5.2.0^{3,5}.0^{16,19}]icosa-13(20),14,16(19),17-tetraen-18-yl]benzimidazole-5-carboxamide]
36 nM | CO[C@@H]1CCN(C(=O)c2cc3nc(-c4cc5ccc6nc5n4CCCCC[C@@H]4C[C@H]4C(=O)N[C@@H]6C)n([C@H]4C[C@H]4F)c3cc2F)C[C@@H]1N [Example 827, (2~{R},5~{R},7~{R})-14-[5-[(3~{S},4~{R})-3-amino-4-methoxy-piperidine-1-carbonyl]-6-fluoro-1-[(1~{S},2~{R})-2-fluorocyclopropyl]benzimidazol-2-yl]-2-methyl-3,13,19-triazatetracyclo[11.5.2.0^ {5,7}.0^{16,20}]icosa-1(19),14,16(20),17-tetraen-4-one]
